Blank lines part the entries; values can stand above or below the compound they belong to.
Key:
Format in all cases: cell-based
[1] = tested on: NCIH510A (SCLC) cell line; test: Cell viability of NF1-mutant tumor cell line NCIH510A (MTT or AlamarBlue); settings: 10 days treatment; for EC50: Homo sapiens, NCI-H510A, 240 h, NF1 p. D2184G/p. L2618L
Procedure: (§1) Mycoplasma-free tumor cell lines from different tumor types carrying mutations in the NF1 gene (see Table 1) were seeded in 50 μl/well of complete medium (as described in Table 2, all reagents from Thermo Fisher) in 96-well plates at the optimal cell density to ensure log-phase growth throughout the duration of the experiment (see Table 2). The day after seeding, 50 μl of medium containing 9 serial dilutions (1:3) of 2×-concentrated iadademstat (LSD1 inhibitor; used as the dihydrochloride salt) were added to the cells to obtain 100 μl of cells treated with 1×-concentrated compound at each dilution. Additionally, the effect of other LSD1 inhibitors, i.e. bomedemstat (bis-tosylate salt) and pulrodemstat (besylate salt), was likewise evaluated in a subset of these tumor cell lines (sNF96.2, sNF02.2, MOLM13 and NCIH510A).
(§2) Each experimental condition was tested in technical triplicates, including medium-only wells and vehicle-treated controls for background correction and normalization, respectively. After treatment, cells were incubated at 37° C. in a humidified and controlled 5% CO2 atmosphere (see Table 2 for duration of treatment according to the growth curve of each cell line and number of cells seeded) and compound and medium refreshment was performed by adding 50 μl of medium supplemented with 1×-concentrated compound at each corresponding dilution when the duration of the treatment exceeded 4 days of drug incubation (see Table 2). After treatment, cell viability was evaluated using either the MTT assay (Sigma-Aldrich) or AlamarBlue™ Cell viability reagent (Life Technologies), following manufacturer's instructions. Background was calculated as the mean of the values of medium-only controls and subtracted from each data point. The average of background-corrected technical triplicates was calculated and normalized by the mean of vehicle-treated controls (corresponding to 100% of viability). Data were analyzed using GraphPad PRISM® version 9.0.1 (GraphPad Software, Inc., La Jolla, CA/USA) to calculate the best-fitting curves and the EC50 values (corresponding to the concentration of compound at which a half (50%) maximal effect is obtained; lower EC50 values thus indicate greater potency).

MOLM13 (AML) cell line = test: Cell viability of NF1-mutant tumor cell line MOLM13 (MTT or AlamarBlue); settings: 4 days treatment; for EC50: Homo sapiens, MOLM-13, 96 h, NF1 p. E1720D
Procedure: as §1, §2

[2] = tested on: sNF02.2 (MPNST) cell line; test: Cell viability of NF1-mutant tumor cell line sNF02.2 (MTT or AlamarBlue); settings: 6 days treatment; for EC50: 144 h, NF1 c. 4868A > T
Procedure: as §1, §2

[3] = tested on: hTERT ipnNF95.11c (plexiform neurofibroma) cell line; test: Cell viability of NF1-mutant tumor cell line hTERT ipnNF95.11c (MTT or AlamarBlue); settings: 7 days treatment
Procedure: as §1
(§3) Each experimental condition was tested in technical triplicates, including medium-only wells and vehicle-treated controls for background correction and normalization, respectively. […] After treatment, cell viability was evaluated using either the MTT assay (Sigma-Aldrich) or AlamarBlue™ Cell viability reagent (Life Technologies), following manufacturer's instructions. Background was calculated as the mean of the values of medium-only controls and subtracted from each data point. […]

[4] = tested on: sNF96.2 (MPNST) cell line; test: Cell viability of NF1-mutant tumor cell line sNF96.2 (MTT or AlamarBlue); settings: 6 days treatment
Procedure: as §1, §3

MOLT4 (ALL) cell line = test: Cell viability of NF1-mutant tumor cell line MOLT4 (MTT or AlamarBlue); settings: 10 days treatment
Procedure: as §1, §3

[5] = tested on: A204 (rhabdoid tumor) cell line; test: Cell viability of NF1-mutant tumor cell line A204 (MTT or AlamarBlue); settings: 6 days treatment
Procedure: as §1, §3

[6] = tested on: MPNST-NF1-18b (MPNST) cell line; test: Cell viability of NF1-mutant tumor cell line MPNST-NF1-18b (MTT or AlamarBlue); settings: 6 days treatment
Procedure: as §1, §3

[7] = tested on: hTERT ipNF95.11b C (plexiform neurofibroma) cell line; test: Cell viability of NF1-mutant tumor cell line hTERT ipNF95.11b C (MTT or AlamarBlue); settings: 7 days treatment
Procedure: as §1, §3

[8] = tested on: MDAMB231 (TN breast cancer) cell line; test: Cell viability of NF1-mutant tumor cell line MDAMB231 (MTT or AlamarBlue); settings: 4 days treatment
Procedure: as §1, §3

[9] = tested on: MHHES1 (Ewing's sarcoma) cell line; test: Cell viability of NF1-mutant tumor cell line MHHES1 (MTT or AlamarBlue); settings: 6 days treatment
Procedure: as §1, §3

[10] = tested on: TC71 (Ewing's sarcoma) cell line; test: Cell viability of NF1-mutant tumor cell line TC71 (MTT or AlamarBlue); settings: 6 days treatment
Procedure: as §1, §3

[11] = tested on: DAUDI (Burkitt's lymphoma) cell line; test: Cell viability of NF1-mutant tumor cell line DAUDI (MTT or AlamarBlue); settings: 4 days treatment
Procedure: as §1, §3

[12] = tested on: RD (rhabdomyosarcoma) cell line; test: Cell viability of NF1-mutant tumor cell line RD (MTT or AlamarBlue); settings: 6 days treatment
Procedure: as §1, §3

NCIH446 (SCLC) cell line = test: Cell viability of NF1-mutant tumor cell line NCIH446 (MTT or AlamarBlue); settings: 10 days treatment
Procedure: as §1, §3

- EC50 [1]: 10.5 nM
- EC50 (MOLM13 (AML) cell line): 5.38 nM
- EC50 [2]: 0.094 nM
SMILES: CN1CCN(C(=O)[C@H](CCCN[C@@H]2C[C@H]2c2ccc(F)cc2)NC(=O)c2ccc(-n3ccnn3)cc2)CC1 [Bomedemstat, N-[(2S)-5-{[(1R,2S)-2-(4-fluorophenyl)cyclopropyl]amino}-1-(4-methylpiperazin-1-yl)-1-oxopentan-2-yl]-4-(1H-1,2,3-triazol-1-yl)benzamide]

- EC50 [1]: 0.16 nM
- EC50 ([3]; 168 h, NF1 c. 1756delACTA): 0.841 nM
- EC50 ([4]; 144 h, NF1 c. 3683delC + LOH): 0.042 nM
- EC50 (MOLT4 (ALL) cell line; Homo sapiens, MOLT-4, 240 h, NF1 p. G1502G/ NS): 0.795 nM
- EC50 (MOLM13 (AML) cell line): 0.158 nM
- EC50 ([5]; Homo sapiens, 144 h, NF1 p. L1274F): 0.1 nM
- EC50 ([6]; 144 h, NF1 SNV at intron 14 + LOH): 0.025 nM
- EC50 ([7]; 168 h, NF1 c. 1756delACTA/ LOH): 0.14 nM
- EC50 [2]: 0.02 nM
SMILES: N[C@H]1CC[C@H](N[C@@H]2C[C@H]2c2ccccc2)CC1 [Iadademstat, (trans)-N1-((1R,2S)-2-phenylcyclopropyl)cyclohexane-1,4-diamine]
- Response (classification according to viability reduction) [1]: Strong (strong response (viability reduction>30%))
- Response (classification according to viability reduction) [3]: Strong (strong response (viability reduction>30%))
- Response (classification according to viability reduction) [4]: Strong (strong response (viability reduction>30%))
- Response (classification according to viability reduction) (MOLT4 (ALL) cell line): Strong (strong response (viability reduction>30%))
- Response (classification according to viability reduction) (MOLM13 (AML) cell line): Strong (strong response (viability reduction>30%))
- Response (classification according to viability reduction) [5]: Strong (strong response (viability reduction>30%))
- Response (classification according to viability reduction) [6]: Strong (strong response (viability reduction>30%))
- Response (classification according to viability reduction) [7]: Medium (medium response (viability reduction>15% and <30%))
- Response (classification according to viability reduction) [2]: Medium (medium response (viability reduction>15% and <30%))
- Response (classification according to viability reduction) [8]: Low (low response (viability reduction<15%))
- Response (classification according to viability reduction) [9]: Low (low response (viability reduction<15%))
- Response (classification according to viability reduction) [10]: Low (low response (viability reduction<15%))
- Response (classification according to viability reduction) [11]: Low (low response (viability reduction<15%))
- Response (classification according to viability reduction) [12]: Low (low response (viability reduction<15%))
- Response (classification according to viability reduction) (NCIH446 (SCLC) cell line): Low (low response (viability reduction<15%))

- EC50 [1]: 1.73 nM
- EC50 (MOLM13 (AML) cell line): 0.82 nM
- EC50 [2]: 0.166 nM
SMILES: COc1ccc(-c2c(-c3ccc(C#N)c(F)c3)nc(N3CCC(N)CC3)n(C)c2=O)cc1F [Pulrodemstat, 4-[2-(4-aminopiperidin-1-yl)-5-(3-fluoro-4-methoxyphenyl)-1-methyl-6-oxo-1,6-dihydropyrimidin-4-yl]-2-fluorobenzonitrile]
